Measurements: article PMC5612938, “A multiple biomarker assay for quality assessment of botanical drugs using a versatile microfluidic chip” (Scientific Reports, 2017)

Biological target: T1, ACE (from rabbit lung) (Oryctolagus cuniculus, UniProt P12822)
T1 construct: ACE (from rabbit lung); purchased Sigma-Aldrich; host or cells: rabbit lung
T1 sequence (P12822 34-1310): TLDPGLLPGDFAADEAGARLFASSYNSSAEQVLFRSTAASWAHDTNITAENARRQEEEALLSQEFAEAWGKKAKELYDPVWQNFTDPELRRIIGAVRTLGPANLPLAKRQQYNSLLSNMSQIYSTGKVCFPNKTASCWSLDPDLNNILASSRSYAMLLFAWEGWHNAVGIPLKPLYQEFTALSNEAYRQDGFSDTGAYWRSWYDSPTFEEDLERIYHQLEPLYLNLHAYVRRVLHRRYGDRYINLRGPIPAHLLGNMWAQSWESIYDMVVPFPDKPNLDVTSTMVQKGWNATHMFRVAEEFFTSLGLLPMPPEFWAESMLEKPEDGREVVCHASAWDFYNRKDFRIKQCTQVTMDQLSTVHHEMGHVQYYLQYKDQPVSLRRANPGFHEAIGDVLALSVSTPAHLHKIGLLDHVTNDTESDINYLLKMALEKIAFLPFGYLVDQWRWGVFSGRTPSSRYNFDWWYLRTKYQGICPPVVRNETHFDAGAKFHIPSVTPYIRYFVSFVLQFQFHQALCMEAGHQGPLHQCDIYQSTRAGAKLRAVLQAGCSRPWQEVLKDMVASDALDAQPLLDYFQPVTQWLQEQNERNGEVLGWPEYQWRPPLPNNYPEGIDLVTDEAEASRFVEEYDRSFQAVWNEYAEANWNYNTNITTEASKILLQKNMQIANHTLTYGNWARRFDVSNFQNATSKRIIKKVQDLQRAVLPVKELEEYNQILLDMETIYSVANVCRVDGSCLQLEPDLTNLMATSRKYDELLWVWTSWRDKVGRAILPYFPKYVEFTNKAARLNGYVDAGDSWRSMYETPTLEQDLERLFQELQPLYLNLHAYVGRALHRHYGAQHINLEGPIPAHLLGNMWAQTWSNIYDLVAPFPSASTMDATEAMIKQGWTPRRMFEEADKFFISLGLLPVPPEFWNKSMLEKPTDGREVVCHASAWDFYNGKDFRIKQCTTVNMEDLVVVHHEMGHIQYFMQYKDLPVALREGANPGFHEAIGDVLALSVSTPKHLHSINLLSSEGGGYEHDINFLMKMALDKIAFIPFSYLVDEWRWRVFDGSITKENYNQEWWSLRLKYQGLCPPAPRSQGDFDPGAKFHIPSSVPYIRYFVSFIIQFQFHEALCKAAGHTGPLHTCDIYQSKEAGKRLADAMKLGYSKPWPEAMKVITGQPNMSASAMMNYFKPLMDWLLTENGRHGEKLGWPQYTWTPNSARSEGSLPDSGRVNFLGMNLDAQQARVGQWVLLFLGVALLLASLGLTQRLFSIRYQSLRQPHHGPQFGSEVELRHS
Test: on-chip affinity screening, binding degree by LC-MS peak area vs protein-free control (ACE)
Settings: for ACE; [(As − Ac)/As] × 100, sample vs protein-free control, EIC peak area
From the text: In addition to quality assessment, the microfluidic chip can also function as “affinity chromatography” to identify bioactive constituents from botanical drugs in a convenient and efficient manner. After the bioassay, the bound phytochemicals were dissociated from the enzymes and accurately identified by LC-MS. The material used for the chambers in microfluidic system, polydimethylsiloxane (PDMS), is apt to adsorb small molecules nonspecifically, thus a protein-free control was applied to reflect the degree of nonspecific binding of compounds to the chip. Peak areas were obtained from the extracted ion chromatography (EIC) in an ion-trap mass spectrometry (IT-MS), and binding degree (binding degree % = [(As − Ac)/As] × 100, where As and Ac were the peak area in the sample and control, respectively) was calculated to indicate binding specificity. […] All these peaks were unambiguously confirmed via comparisons with chemical standards in terms of retention time and mass spectra (Table 2), and five thrombin inhibitors (danshensu, salvianolic acid B, salvianolic acid C, rosmarinic acid and ginsenoside Rg1) and six ACE inhibitors (astragaloside IV, ononin, formononetin, calycosin, danshensu and salvianolic acid B) were preliminarily identified. […] Enzyme inhibition assays of these hit compounds were then performed to verify the screening results. […] Compounds showing an inhibition rate over 70% were subjected to IC50 measurement.
MBs (10 mg/mL) were diluted 10 times in PB or Tris-HCl buffer, and 10 μL of the diluted MBs (1 mg/mL) were injected into one channel of the chip using a syringe infusion pump (Harvard Apparatus, USA) and retained by an external magnet. Then, 10 μL of thrombin or ACE solution was added and incubated with MBs for two hours at room temperature to form enzyme-MB complexes. The magnet was manually controlled to move MBs back and forth to enhance the ratio of reaction. Subsequently, MBs were washed twice in assay buffer and magnetically transferred to the other channel through the fluidic bridge, whose opening and closing was controlled by a pneumatic valve. Next, 10 μL of sample solutions of tested drug and 10 μL of enzymatic substrate were sequentially infused to the channel by the pump and incubated with the enzyme. When the enzymatic reaction was finished, the MBs were retained in the channel, and air was injected into the channel from the inlet using a syringe to push all the reacted solution to a 384-well plate. The absorbance of the solution was then monitored at 405 nm (for S-2238) or 340 nm (for FAPGG) using an Infinite F200 spectrophotometer (Tecan, Männedorf, Switzerland). Moreover, after detection, the reaction channel was washed three times by assay buffer to remove unbound constituents. 20 μL of 80% aqueous methanol was then injected and incubated with MBs for one hour to dissociate the bound constituents. The resulting solutions of replicates were combined, evaporated by a centrifugal evaporator, reconstituted in 80% aqueous methanol, centrifuged at 10,000 rpm for 10 min, and analyzed by LC-MS for chemical identification.
An Agilent 1100 HPLC system (Agilent Technologies, Waldbronn, Germany) coupled with an LCQ Deca XP^plus IT-MS (Thermo Finnigan, San Jose, CA, USA) equipped with an electrospray ionization (ESI) interface was employed for structure elucidation of the bounded constituents. The analysis was performed in negative ionization mode under following operation parameters: scan range m/z 100–1500; capillary voltage −15 V; source voltage −3 kV; capillary temperature 350 °C; sheath gas (N2) 60 arb; auxiliary gas (N2) 20 arb.

Row | SMILES | Binding degree (%)
1 | O=C(O)C(O)Cc1ccc(O)c(O)c1 (centres unmarked) [Danshensu] | 57.2
2 | O=C(/C=C/c1ccc(O)c2c1[C@H](C(=O)O[C@H](Cc1ccc(O)c(O)c1)C(=O)O)[C@@H](c1ccc(O)c(O)c1)O2)O[C@H](Cc1ccc(O)c(O)c1)C(=O)O [Salvianolic acid B] | 41.3
